Measurements: a melting point compilation (Tetko et al.)

Row | SMILES | melting point [°C]
1 | Cc1ccc(C)c(-c2n[nH]c(=O)c3ccccc23)c1 | 216 to 218
2 | Nc1ccc(-c2nc3ccccc3[nH]2)cc1 | 218 to 222
3 | O=C(NO)c1ccccc1C(F)(F)F | 157 to 159
4 | CCOC(=O)c1cc(Br)cc(Cl)c1N | 49 to 51
5 | CON=Cc1ccc(C(=O)O)cc1 | 183 to 185
6 | CC(=O)c1ccc(OCC(=O)N2CCOCC2)cc1 | 55 to 59
7 | O=C(CCl)Nc1cccc(Cl)c1 | 70 to 72
8 | Cc1ccc(C(=O)CC#N)s1 | 105 to 107
9 | CC(C)(C)C(=O)N1CSCC1C(=O)O (centres undefined) | 118 to 120
10 | CN(C)c1ncc(N)cn1 | 78 to 80
11 | CCc1ccccc1-n1c(S)nc2ccccc2c1=O | 304 to 306
12 | COc1ccc2[nH]c3c(c2c1)C(=O)CCC3 | 269 to 271
13 | CC(C)(C)OC(=O)N1CCCC(C#N)C1 (centres undefined) | 64 to 66
14 | COc1cccc(C(=O)c2c(N)sc3c2CCC3)c1 | 127 to 129
15 | CS(=O)(=O)Cc1noc(CCl)n1 | 73 to 75
16 | CC(=O)c1cnc2ccnn2c1C | 80 to 82
17 | CS(=O)(=O)Nc1cccc(Br)c1 | 113 to 115
18 | NCc1ccccc1-c1ccc(CN2CCCC2=O)cc1 | 82 to 84
19 | O=C(O)Cc1n[nH]c2ccccc12 | 167 to 169
20 | Cn1cnnc1-c1ccccc1N | 133 to 135
21 | Nc1sc2c(c1-c1nc3ccccc3s1)CCCC2 | 100 to 104
22 | O=Cc1c(Cl)cccc1N1CCCC1 | 69 to 71
23 | O=C(O)CCN1C(=O)CCc2cc(F)ccc21 | 149 to 151
24 | CCCc1cc(N)n(C)n1 | 68 to 70
25 | Cc1ccc(S(=O)(=O)NCCC(=O)O)cc1C | 126 to 128
26 | COC(=O)c1ccc(CBr)s1 | 36 to 38

Row | SMILES | melting point [°C]
27 | CCC(Oc1ccccc1Cl)C(=O)O (centres undefined) | 82 to 84
28 | Nc1nc(-c2cccc(Cl)c2)ns1 | 149 to 151
29 | CS(=O)(=O)Cc1noc(C(Cl)(Cl)Cl)n1 | 110 to 112
30 | O=[N+]([O-])c1ccccc1Nc1ccc(F)cc1F | 79 to 81
31 | NS(=O)(=O)Cc1ccc(Br)cc1 | 191 to 193
32 | NNc1cc(C(F)(F)F)nc2ncnn12 | 230 to 232
33 | Nc1ccccc1NS(=O)(=O)c1cccs1 | 188 to 190
34 | O=C(O)c1cc(S(=O)(=O)Cl)cc(Cl)c1Cl | 151 to 153
35 | CC(C)(C)c1cc(=O)[nH]c(C(C)(C)C)n1 | 163 to 165
36 | OCCCNC(c1ccccc1)c1ccccc1 | 62 to 64
37 | NNc1c(Cl)cc(C(=O)O)cc1Cl | 207 to 209
38 | Cc1ccc(C)c(OCC(=O)NN)c1 | 153 to 155
39 | O=C1CNC(=O)N1CCCCl | 90 to 92
40 | Nc1ccc(C=O)cc1[N+](=O)[O-] | 173 to 175
41 | NC(=S)C1CCOC1 (centres undefined) | 102 to 104
42 | CC(C)C(C(=O)O)n1cncn1 (centres undefined) | 177 to 179
43 | CC1(C)CC(=O)C=C(N)C1 | 167 to 170
44 | CCOC(=O)c1ccc2c(c1)nc(C)n2CC | 70 to 72
45 | Cc1ccc(-c2cc(C(=O)O)c3ccccc3n2)cc1 | 180 to 184
46 | Cc1cc(-c2cccc(F)c2)nnc1Cl | 132 to 134
47 | NCCc1nc2ccccc2[nH]1 | 215 to 230
48 | O=S(=O)(Cl)c1cc2c(cc1Cl)OCCO2 | 139 to 141
49 | COC(=O)c1ccc(Oc2cccnc2)cc1 | 82 to 84
50 | CC1Oc2c(cccc2C(=O)O)NC1=O (centres undefined) | 281 to 283
51 | CCOCCNC(=O)c1ccc(Br)cc1 | 99 to 101
52 | FC(F)(F)c1ccc(C2CCCCN2)cc1 (centres undefined) | 36 to 38

Row | SMILES | melting point [°C]
53 | O=Cc1csc(-c2ccc(Cl)cc2)n1 | 124 to 126
54 | O=C1CC(c2ccc(Cl)cc2)N1 (centres undefined) | 90 to 92
55 | CC(Nc1ccccn1)c1ccco1 (centres undefined) | 136 to 138
56 | O=C(O)CC(Br)C(=O)c1ccccc1 (centres undefined) | 128 to 130
57 | N#CNC1=NCCCCC1 | 79 to 81
58 | CC(=O)N1Cc2ccccc2CC1C(=O)O (centres undefined) | 173 to 175
59 | CCS(=O)(=O)NC(C)C(=O)O (centres undefined) | 129 to 131
60 | O=C1Nc2ccc(Br)cc2C1=NO | 268 to 270
61 | COc1ccc(OCC(=O)NN)cc1 | 142 to 144
62 | CCS(=O)(=O)c1ccccc1N1CCC(N)CC1 | 119 to 121
63 | BrCc1cc(Br)c2c(c1)OCO2 | 123 to 125
64 | O=[N+]([O-])c1c(NC2CC2)cccc1NC1CC1 | 116 to 118
65 | O=C(O)C(=O)c1ccc(Br)cc1O | 188 to 190
66 | Cc1nn2cc(CCCO)cnc2c1C | 108 to 110
67 | O=S(=O)(Cl)c1ccc(F)c2ncccc12 | 104 to 106
68 | Clc1ccc(SCc2nc(Cl)c3c4c(sc3n2)CCC4)cc1 | 71 to 75
69 | CC1=NN(c2ccccc2)C(=O)C1=NO | 131 to 133
70 | C#CCOc1ncccc1C(=O)O | 120 to 122
71 | COc1ccc(NC(=O)OC(C)(C)C)c(N)c1 | 116 to 118
72 | COc1cc([N+](=O)[O-])ccc1NC(=O)CCCl | 144 to 146
73 | NS(=O)(=O)Cc1c(F)cccc1F | 153 to 155
74 | O=C(O)c1ccnc(NC2CCCC2)c1 | 296 to 298
75 | COc1cccc(C(=O)c2cccnc2)c1 | 72 to 74
76 | O=C(Nc1cccc(Br)n1)c1ccccc1 | 84 to 86
77 | Cc1csc(Sc2ccc(C(=O)O)cc2[N+](=O)[O-])n1 | 207 to 210
78 | Cc1cc(=O)[nH]cc1C(=O)O | 306 to 308

Row | SMILES | melting point [°C]
79 | NC(CNS(=O)(=O)c1ccc(F)cc1)=NO | 148 to 150
80 | O=c1[nH]c(CCl)nc2ccsc12 | 190 to 193
81 | O=[N+]([O-])c1cc(F)c(F)cc1[N+](=O)[O-] | 80 to 82
82 | OC(c1ccccc1)c1nccs1 (centres undefined) | 99 to 101
83 | O=C1OC(=O)c2cc(F)c(F)cc21 | 94 to 96
84 | O=Cc1sc(N2CCCC2)nc1Cl | 119 to 121
85 | Clc1ccc(-c2noc(Cl)n2)cc1 | 59 to 61
86 | COc1cc(C(=O)Cc2nc3ccccc3n2C(F)F)cc(OC)c1OC | 112 to 114
87 | O=C(O)c1cccc(S)c1 | 144 to 147
88 | Nc1ccc(Cl)c(S(=O)(=O)Nc2ccc(Cl)cc2)c1 | 123 to 125
89 | CC(Cl)C(=O)N(CCC#N)c1ccccc1 (centres undefined) | 74 to 76
90 | CNC1(C(=O)O)CCc2ccccc21 (centres undefined) | 279 to 281
91 | O=C(O)c1cccc(Nc2ccccc2)c1 | 129 to 131
92 | CC(C)c1cc(C(=O)O)n(C)n1 | 158 to 160
93 | CCOC(=O)CNCC(N)=O | 70 to 72
94 | Cn1ccnc1C(=O)c1cc(S)nc2ccccc12 | 250 to 252
95 | Cc1sc2nc(-c3ccccc3)nc(Cl)c2c1C | 157 to 159
96 | COc1cc2c(cc1OC)CC(=O)NCC2 | 192 to 194
97 | NS(=O)(=O)Cc1ccc(F)cc1F | 139 to 141
98 | Nc1nnc(-c2ccc(Br)cc2)o1 | 273 to 275
99 | Cn1ccnc1C(O)(c1nccn1C)C1CC1 | 166 to 168
100 | CC(O)(CN)c1cccs1 (centres undefined) | 55 to 57
101 | Cn1ccnc1C(=O)OCC(F)(F)F | 83 to 85
102 | O=Cc1cccc2nccn12 | 123 to 125
103 | N#Cc1ccc(NCC(=O)O)cc1 | 225 to 227
104 | CC1(C(=O)O)CCCS1 (centres undefined) | 38 to 40
